In ChEMBL document CHEMBL6178021, “Optimization of Tambjamines Active against Multiple Stages of Malaria Parasites” (J Med Chem, 2025):
Values after ≈ are worked out from the molar mass of the structure shown.

What was measured:
MDR1 (human) [1] = test: Apparent permeability across basolateral to apical side in MDCK transfected with human MDR1 cells incubated for 1 hr by LC-MS analysis; conditions: dog, MDCK-MDR1
[2] = Metabolic stability in human liver microsomes assessed as half life measured up to 60 mins by LC/MS analysis; type: ADME, Microsome
Plasmodium falciparum [3] = test: microbe, parasite or virus in culture; conditions: D6, 72 h
Description: Antiplasmodial activity against asexual blood-stage Plasmodium falciparum D6 using 2% haematocrit and 0.2% parasitemia assessed as reduction in fluorescence measured after 72 hrs by Malaria SYBR Green I-based Fluorescence (MSF) assay

in vitro [4] = conditions: human, liver microsomes
Plasmodium falciparum [5] = test: microbe, parasite or virus in culture; conditions: Dd2, 72 h
Description: Antiplasmodial activity against asexual blood-stage Plasmodium falciparum Dd2 using 2% haematocrit and 0.2% parasitemia assessed as reduction in fluorescence measured after 72 hrs by Malaria SYBR Green I-based Fluorescence (MSF) assay

Plasmodium falciparum [6] = test: Antiplasmodial activity against asexual blood-stage Plasmodium falciparum Tm90-C2B using 2% haematocrit and 0.2% parasitemia assessed as reduction in fluorescence measured after 72 hrs by Malaria SYBR Green I-based Fluorescence (MSF) assay; type: functional, organism-based
[7] = Metabolic stability in mouse liver microsomes assessed as half life measured up to 60 mins by LC/MS analysis; type: ADME, Microsome
[8] = Solubility of the compound in potassium phosphate buffer at pH 7.4 by UV-vis spectroscopy; conditions: buffer
MDR1 (human) [9] = test: Efflux ratio, ratio of apparent permeability across apical to basolateral side over basolateral to apical side in MDCK transfected with human MDR1 cells incubated for 1 hr by LC-MS analysis; conditions: dog
in vitro [10] = conditions: mouse, liver microsomes
MDR1 (human) [11] = test: Apparent permeability across apical to basolateral side in MDCK transfected with human MDR1 cells incubated for 1 hr by LC-MS analysis; conditions: dog, MDCK-MDR1
Plasmodium yoelii [12] = test: Antimalarial activity against erythrocytic Plasmodium yoelii MRA-428 infected in CF1 mouse assessed as reduction in parasitemia at 10 mg/kg, po once daily for 4 days measured on day 5; type: functional; set-up: scale not given: the % may be the effect or the level left; conditions: time 4 day
Plasmodium yoelii [13] = test: Antimalarial activity against erythrocytic Plasmodium yoelii MRA-428 infected in CF1 mouse assessed as reduction in parasitemia at 25 mg/kg, po once daily for 4 days measured on day 5; type: functional; set-up: scale not given: the % may be the effect or the level left; conditions: time 4 day
in vitro [14] = conditions: human
Description: Selectivity index, ratio of IC50 for cytotoxicity against human HepG2 cells to IC50 for antiplasmodial activity against asexual blood-stage Plasmodium falciparum D6

HepG2 = test: Cytotoxicity against human HepG2 cells assessed as cell viability measured after 48 hrs by MTT assay; type: toxicity, cell-based; conditions: hepg2
Plasmodium yoelii [15] = test: Antimalarial activity against erythrocytic Plasmodium yoelii MRA-428 infected in CF1 mouse assessed as reduction in parasitemia at 50 mg/kg, po once daily for 4 days measured on day 5; type: functional; set-up: scale not given: the % may be the effect or the level left; conditions: time 4 day
Plasmodium yoelii [16] = test: Antimalarial activity against erythrocytic Plasmodium yoelii MRA-428 infected in CF1 mouse assessed as cured mouse at 50 mg/kg, po once daily for 4 days measured on day 28 day; type: functional, organism-based; conditions: time 4.0 day
Plasmodium yoelii [17] = test: Antimalarial activity against erythrocytic Plasmodium yoelii MRA-428 infected in CF1 mouse assessed as cured mouse at 25 mg/kg, po once daily for 4 days measured on day 28 day; type: functional, organism-based; conditions: time 4.0 day

Row | SMILES | Papp B→A at 1 h (MDR1 (human) [1]) [×10⁻⁶ cm/s] | half-life [2] [min] | IC50 (Plasmodium falciparum [3]) [µM] | microsomal CLint at 1 h (in vitro [4]) [µL/min/mg] | IC50 (Plasmodium falciparum [5]) [µM] | IC50 (Plasmodium falciparum [6]) [µM] | half-life [7] [min] | solubility [8] [µM] | efflux ratio at 1 h (MDR1 (human) [9]) | microsomal CLint at 1 h (in vitro [10]) [µL/min/mg] | Papp A→B at 1 h (MDR1 (human) [11]) [×10⁻⁶ cm/s] | Activity (Plasmodium yoelii [12]) [%] | Activity (Plasmodium yoelii [13]) [%] | selectivity ratio (in vitro [14]) | IC50 (HepG2) [µM] | Activity (Plasmodium yoelii [15]) [%] | Activity (Plasmodium yoelii [16]) | Activity (Plasmodium yoelii [17])
1 | CCC1=C(CC)/C(=C/NC2CCCCC2)N=C1c1ccc(Cl)[nH]1 | 0.12 | > 60 | 0.391 | 8.01 | 0.232 | 0.202 | > 60 | 22.6 (≈ 7.5 µg/mL) | 0.17 | 0.67 | 0.71 |  |  |  |  |  |  | 
2 | C[C@H]1CC[C@H](N/C=C2\N=C(c3ccc[nH]3)C3=C2CCCC3)CC1 | 0.23 | 25.6 | 0.00588 | 54.1 | 0.00236 | 0.0131 | 33 | 185 (≈ 57.2 µg/mL) | 0.85 | 41.9 | 0.27 |  | 41.2 | 1320 | 7.77 | 100 |  | 
3 | CCC1=C(CC)/C(=C/NC2CCCCCC2)N=C1c1ccc(Cl)[nH]1 | 0.076 | > 60 | 0.46 | 22.2 | 0.254 | 0.18 | > 60 | 14.4 (≈ 4.98 µg/mL) | 0.4 | 8.33 | 0.19 |  |  |  |  |  |  | 
4 | CCC1=C(CC)/C(=C/NC2CCCCCC2)N=C1c1ccc(Br)[nH]1 | 0.001 | > 60 | 0.281 | 13 | 0.224 | 0.13 | 58.5 | < 3.125 | 0.26 | 23.7 | 0.004 |  |  |  |  |  |  | 
5 | COc1ccc(C2=C(c3ccc(OC)cc3)/C(=C/NC34C[C@H]5C[C@@H](C3)C[C@@H](C4)C5)N=C2c2ccc[nH]2)cc1 | 0.005 | 52.1 |  | 26.6 | 0.0153 | 0.0151 | > 60 | 10.7 (≈ 5.41 µg/mL) | 0.079 | 12.2 | 0.059 |  |  | 496 | 7.94 |  |  | 
6 | CCC1=C(CC)/C(=C/N[C@H]2CC[C@H](C(=O)OC)CC2)N=C1c1ccc[nH]1 | 0.74 | 14.4 | 0.367 | 96.4 | 0.299 | 0.405 | 12.6 | 121 (≈ 43 µg/mL) | 8.4 | 110 | 0.088 |  |  |  |  |  | Not active; None Of The Mouse Cured Out Of Four Tested | 
7 | COC(=O)[C@H]1CC[C@H](N/C=C2\N=C(c3ccc[nH]3)C3=C2CCCC3)CC1 | 1.1 | 16.7 |  | 82.9 | 0.157 | 0.17 | 10.3 | 383 (≈ 135 µg/mL) | 4.8 | 134 | 0.23 |  |  | 334 | 19.9 | 100 |  | 
8 | COC1=C(OC)/C(=C/NC2CCCCCC2)N=C1c1ccc[nH]1 | 2.78 | 16.1 | 0.0569 | 85.9 | 0.0356 | 0.0388 | 14.6 | 199 (≈ 62.8 µg/mL) | 2.7 | 94.7 | 1.02 | 8.81 | 81.2 | 290 | 16.5 |  |  | 

The remaining molecules from weak to strong by IC50 (Plasmodium falciparum [5]), led by results:

Row | Papp B→A at 1 h (MDR1 (human) [1]) [×10⁻⁶ cm/s] | half-life [2] [min] | IC50 (Plasmodium falciparum [3]) [µM] | microsomal CLint at 1 h (in vitro [4]) [µL/min/mg] | IC50 (Plasmodium falciparum [5]) [µM] | IC50 (Plasmodium falciparum [6]) [µM] | half-life [7] [min] | solubility [8] [µM] | efflux ratio at 1 h (MDR1 (human) [9]) | microsomal CLint at 1 h (in vitro [10]) [µL/min/mg] | Papp A→B at 1 h (MDR1 (human) [11]) [×10⁻⁶ cm/s] | SMILES | Activity (Plasmodium yoelii [12]) [%] | Activity (Plasmodium yoelii [13]) [%] | selectivity ratio (in vitro [14]) | IC50 (HepG2) [µM] | Activity (Plasmodium yoelii [15]) [%] | Activity (Plasmodium yoelii [16]) | Activity (Plasmodium yoelii [17])
9 | 0.001 | 24.5 | 0.536 | 56.5 | 0.467 | 0.471 | > 60 | 30.7 (≈ 11.7 µg/mL) | 0.59 | 19.7 | 0.002 | CCC1=C(CC)/C(=C/NC2CCCCC2)N=C1c1cc2cc(Cl)ccc2[nH]1 |  |  |  |  |  |  | 
10 |  |  | 0.13 |  | 0.188 | 0.31 |  |  |  |  |  | CCC1=C(CC)/C(=C/NC23C[C@H]4C[C@@H](C2)C[C@@H](C3)C4)N=C1c1ccccc1O |  |  | 93 | 12.2 |  |  | 
11 | 0.52 | 33.9 |  | 40.8 | 0.0496 | 0.0327 | > 60 | 237 (≈ 86.1 µg/mL) | 0.43 | 5.49 | 1.2 | FC(F)(F)[C@H]1CC[C@H](N/C=C2\N=C(c3ccc[nH]3)C3=C2CCCC3)CC1 |  | 100 | 366 | 12.4 | 100 | Not active; One Mouse Cured Out Of Four | Not active; None Of The Mouse Cured Out Of Four Tested
12 | 0.001 | > 60 | 0.0419 | 6.19 | 0.0457 | 0.0559 | > 60 | 24.4 (≈ 10.5 µg/mL) | 0.59 | 9.13 | 0.002 | CCC1=C(CC)/C(=C/NC23C[C@H]4C[C@@H](C2)C[C@@H](C3)C4)N=C1c1cc2cc(OC)ccc2[nH]1 | 87.2 | 93.8 | 125 | 5.25 |  |  | 
13 | 1.3 | 51.3 | 0.00636 | 27 | 0.0119 | 0.00135 | 16.7 | 131 (≈ 42.9 µg/mL) | 5.2 | 82.8 | 0.25 | CCc1ccc(C2=N/C(=C\NC3CCCCC3)C3=C2OCCO3)[nH]1 | 0 | 19.4 | 308 | 1.96 |  |  | 
14 | 0.074 | > 60 | 0.0141 |  | 0.00898 | 0.00732 | > 60 | 40 (≈ 15.4 µg/mL) | 0.22 |  | 0.34 | CCC1=C(CC)/C(=C/NC23C[C@H]4C[C@@H](C2)C[C@@H](C3)C4)N=C1c1ccc(Cl)[nH]1 | 23.2 | 90.7 | 315 | 4.44 |  |  | 
15 | 0.85 | 11.7 |  | 118 | 0.0084 | 0.00391 | 27.9 | 114 (≈ 40.1 µg/mL) | 6.1 | 49.8 | 0.14 | C(/NC12C[C@H]3C[C@@H](C1)C[C@@H](C2)C3)=C1/N=C(c2ccc[nH]2)C2=C1OCCO2 | 0 |  | 444 | 3.76 |  |  | 
16 | 0.016 | 12.2 | 0.00888 | 114 | 0.00537 | 0.00802 | 12.1 | 12.4 (≈ 5.65 µg/mL) | 0.53 | 110 | 0.03 | CCC1=C(CC)/C(=C/NC23C[C@H]4C[C@@H](C2)C[C@@H](C3)C4)N=C1c1ccc(-c2ccc(OC)cc2)[nH]1 | 11.5 |  | 113 | 0.999 |  |  | 
17 | 0.002 | 46.9 | 0.00258 | 29.5 | 0.00133 | 0.00183 | 15.1 | < 3.125 |  | 91.8 | 2.85 | CCC1=C(CC)/C(=C/NC23C[C@H]4C[C@@H](C2)C[C@@H](C3)C4)N=C1c1ccc(-c2ccccc2)[nH]1 | 0 |  | 800 | 2.06 |  |  | 
18 | 0.008 | > 60 | 0.00208 | 11.7 | 0.000868 | 0.00399 | > 60 | 26.2 (≈ 12.3 µg/mL) | 0.21 | 4.57 | 0.04 | CCC1=C(CC)/C(=C/NC23C[C@H]4C[C@@H](C2)C[C@@H](C3)C4)N=C1c1ccc(Cc2ccc(OC)cc2)[nH]1 | 0 |  | 775 | 1.61 |  |  | 
